Experiment [1] has as its target T1, wild-type EPSP synthase of tomato (Solanum lycopersicum, UniProt P10748).
T1 construct: ATG translational initiation codon at the site predicted to be the start of the mature enzyme for in vitro expression in E. Coli; initiator methionine (ATG in an engineered NcoI site) (N); made in house; host or cells: E. coli SR481 (aroA mutant) harboring pMON9719, desalted cell extract
In words: EPSP synthase activity assay, extracts of E. coli SR481 harboring pMON9719. It counts as biochemical. The procedure: E. coli SR481 cells harboring pMON9719 or pMON9729 were grown under conditions which induce the expression of the RecA promoter. The cells were lysed and the extracts were assayed for EPSP synthase activity.
Specifically, the bacterial cell paste was washed twice with 0.9% saline, suspended in buffer (100 mM Tris-HCl, 5 mM dithiothreitol, 1 mM EDTA, 10% glycerol and 1 mM benzamidine HCl) passed twice through the French Pressure Cell at 1000 psi. The cell abstract was separated from the cells by centrifuging at 15,000×gravity for 10 mins. at 5° C. It was desalted using Sephadex G-50 (Pharmacia, Piscataway, N.J.). The desalted extract was assayed for EPSP synthase activity as follows:
To an assay mix (40 μl) containing shikimate-3-phosphate (2 mM), ^14 C-phosphoenolpyruvate (1 mM, 1.2 mCi/mmol), ammonium molybdate (0.1 mM), potassium fluoride (5 mM), in 50 mM HEPES-KOH, pH 7, was added 10 μl of the extract and incubated at 25° C. for 2 mins. […] The radioactivity of the eluent was monitored using a Radiometric Flo-One Beta Instrument. […] The EPSP synthase activity was determined by measurement of the conversion of ^14 C-PEP to ^14 […], both of which are resolved under the above conditions of chromatography. The protein content of the extract was determined by the method of Bradford (Biorad Labs, Calif.). […]

The target of experiment [2] is T2, Arabidopsis EPSP synthase with the alanine for glycine substitution at position 101 (Arabidopsis thaliana, UniProt P05466, G177A).
T2 construct: the expressed Arabidopsis EPSP synthase would include the alanine for glycine substitution at position 101 of the mature enzyme; expressed in transfected cells; host or cells: Brassica napus calli transformed by Agrobacterium harboring pMON600, protein extract
T2 sequence (P05466 77-520 G177A): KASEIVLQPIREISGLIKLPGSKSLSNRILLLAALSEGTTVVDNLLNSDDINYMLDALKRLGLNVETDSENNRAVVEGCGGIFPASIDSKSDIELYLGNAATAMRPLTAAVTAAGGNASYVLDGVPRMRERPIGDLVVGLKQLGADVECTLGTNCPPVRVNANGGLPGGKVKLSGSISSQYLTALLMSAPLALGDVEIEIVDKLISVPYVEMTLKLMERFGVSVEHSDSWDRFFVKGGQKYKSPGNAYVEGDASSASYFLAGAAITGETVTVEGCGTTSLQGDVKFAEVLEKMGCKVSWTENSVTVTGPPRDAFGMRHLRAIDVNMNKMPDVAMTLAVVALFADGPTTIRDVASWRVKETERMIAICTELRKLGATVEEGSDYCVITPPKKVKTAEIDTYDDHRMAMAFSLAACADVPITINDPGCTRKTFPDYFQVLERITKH
In words: EPSP synthase activity in protein extracts of Brassica napus calli transformed with pMON600. It counts as biochemical. The procedure: The Agrobacterium harboring the pMON600 plasmid was used to transform explants of Brassica napus. Three gentamicin resistant calli were obtained. […] Proteins were extracted from samples of the calli and were assayed for EPSP synthase activity. All three of the calli contained EPSP synthase activity that was resistant to 0.5 mM glyphosate.
The EPSP synthase in the extracts was further characterized by titrating the resistance to glyphosate.

Experiment [3] concerns petunia leaf disks transformed with CaMV35S/EPSP synthase gene (pMON546). Kind of experiment: Callus growth of petunia leaf disks on glyphosate media, transformed with pMON546. It counts as cell-based. On the procedure:
Leaf disks with diameters of 6 mm (1/4 inch) were taken from surface-sterilized petunia leaves. They were cultivated on MS104 agar medium for 2 days to promote partial cell wall formation at the wound surfaces. They were then submerged in a culture of A. tumefaciens cells containing both pMON546 and GV3111-SE which had been grown overnight in Luria broth at 28° C., and shaken gently. The cells were removed from the bacterial suspension, blotted dry, and incubated upside down on filter paper placed over "nurse" cultures of tobacco cells, as described in Horsch (1980). After 2 or 3 days, the disks were transferred to petri dishes containing MS media with 500 μg/ml carbenicillin and 0., 0.1, 0.25, or 0.5 mM glyphosate (sodium salt), with no nurse cultures.
Control tissue was created using A. tumefaciens cells containing the helper plasmid pGV3111-SE and a different plant transformation vector, pMON505, which contained a T-DNA region with a NOS/NPTII/NOS kanamycin resistance gene and a NOS selectable marker gene identical to pMON546, but without the CaMV35S/EPSP synthase gene.
Within 10 days after transfer to the media containing glyphosate, actively growing callus tissue appeared on the periphery of all disks on the control plate containing no glyphosate. […] This confirms that the CaMV35S/EPSP synthase gene conferred glyphosate resistance upon the transformed cells.

For another experiment, the system named is wild type callus. Kind of experiment: Growth of wild type callus on glyphosate. The note with it: 0.5 mM glyphosate. In kind it is cell-based, Brassica napus.

In general, IC50 refers to the concentration needed to halve the response being measured.

T1 sequence (P10748 77-520): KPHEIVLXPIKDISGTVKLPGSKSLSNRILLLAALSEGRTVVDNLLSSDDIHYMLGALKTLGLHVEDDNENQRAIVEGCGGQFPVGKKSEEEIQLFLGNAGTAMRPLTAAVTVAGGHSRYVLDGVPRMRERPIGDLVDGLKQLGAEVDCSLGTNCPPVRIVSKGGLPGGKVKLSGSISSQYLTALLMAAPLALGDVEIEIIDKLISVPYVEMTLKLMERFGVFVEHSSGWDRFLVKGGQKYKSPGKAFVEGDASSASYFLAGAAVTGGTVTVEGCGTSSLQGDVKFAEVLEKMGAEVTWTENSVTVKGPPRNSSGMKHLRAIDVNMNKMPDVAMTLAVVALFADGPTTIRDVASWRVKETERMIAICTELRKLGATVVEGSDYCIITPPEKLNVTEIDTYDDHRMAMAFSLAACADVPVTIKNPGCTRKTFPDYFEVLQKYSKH

Take `O=C(O)CNCP(=O)(O)O` [glyphosate, N-phosphonomethylglycine]: the IC50 in experiment [1] was 0.012 mM; in experiment [2], 7.5 mM. Also, the “EPSP synthase activity in the presence of glyphosate” value in experiment [2] (0.5 mM glyphosate, all three calli) is reported as “resistant”. In experiment [3] (0.1 mM glyphosate, within 10 days after transfer), the “callus growth, control disks versus transformed tissue” value is on record as “little detectable difference”. In addition, the callus growth is “substantial growth” in experiment [3] (0.25 mM glyphosate, transformed tissue) and “a significant number of calli grew” in experiment [3] (0.5 mM glyphosate, transformed disks). In the experiment with wild type callus, the effect on callus is on record as “kills”.

(Values after patent US5145783A, “Glyphosate-tolerant 5-endolpyruvyl-3-phosphoshikimate synthase” (Monsanto Company, priority 1990, dated 1992).)
